Assay [1] deals with HCV genotype 1a (strain H77) subgenomic replicon with NS3 resistance mutation R155K in Huh-7 cells. Nature of the assay: HCV replicon RNA replication assay (NS3 protease variants), genotype 1a R155K. It is filed as cell-based. To be noted: Hepatitis C virus, Huh-7, 72 h, read-out: R155K 1a EC50 (nM). Background: A replicon is a self-replicating genome or part of one, used to study replication in cells.

The subject of assay [2] is HCV genotype 1b (Con-1) subgenomic replicon with NS3 resistance mutation D168V in Huh-7 cells. Nature of the assay: HCV replicon RNA replication assay (NS3 protease variants), genotype 1b D168V. The settings on record: Hepatitis C virus, Huh-7, 72 h, read-out: D168V 1b EC50 (nM). The format is cell-based.

The term EC50 denotes the concentration giving half of the maximal effect. Take `COc1ccc2c(O[C@@H]3C[C@H]4C(=O)N[C@]5(C(=O)NS(=O)(=O)C6(C)CC6)C[C@H]5/C=C\CCCCC[C@H](NC(=O)N5CCCC5)C(=O)N4C3)cc(OC(C)C)nc2c1C` [Compound 2020, (2R,6S,12Z,13aS,14aR,16aS)-2-{[7-methoxy-8-methyl-2-(propan-2-yloxy)quinolin-4-yl]oxy}-N-[(1-methylcyclopropyl)sulfonyl]-5,16-dioxo-6-[(pyrrolidin-1-ylcarbonyl)amino]-1,2,3,6,7,8,9,10,11,13a,14,15,16,16a-tetradecahydrocyclopropa[e]pyrrolo[1,2-a][1,4]diazacyclopentadecine-14a(5H)-carboxamide]: the EC50 in assay [1] is 4 nM; in assay [2], 1.4 nM.

Consider `COc1ccc2c(O[C@@H]3C[C@H]4C(=O)N[C@]5(C(=O)NS(=O)(=O)C6CC6)C[C@H]5/C=C\CCCCC[C@H](NC(=O)c5ccn(CCF)n5)C(=O)N4C3)cc(OC(C)C)nc2c1C` [Compound 1031, (2R,6S,12Z,13aS,14aR,16aS)-N-(cyclopropylsulfonyl)-6-({[1-(2-fluoroethyl)-1H-pyrazol-3-yl]carbonyl}amino)-2-{[7-methoxy-8-methyl-2-(propan-2-yloxy)quinolin-4-yl]oxy}-5,16-dioxo-1,2,3,6,7,8,9,10,11,13a,14,15,16,16a-tetradecahydrocyclopropa[e]pyrrolo[1,2-a][1,4]diazacyclopentadecine-14a(5H)-carboxamide], for which the 50% effective concentration (EC50) in assay [1] worked out at 4.2 nM; in assay [2], 0.39 nM.

Take `COc1ccc2c(O[C@@H]3C[C@H]4C(=O)N[C@]5(C(=O)NS(=O)(=O)C6(C)CC6)C[C@H]5/C=C\CCCCC[C@H](NC(=O)c5ccn(CC(C)C)n5)C(=O)N4C3)cc(OC(C)C)nc2c1C` [Compound 1020, (2R,6S,12Z,13aS,14aR,16aS)-2-{[7-methoxy-8-methyl-2-(propan-2-yloxy)quinolin-4-yl]oxy}-N-[(1-methylcyclopropyl)sulfonyl]-6-({[1-(2-methylpropyl)-1H-pyrazol-3-yl]carbonyl}amino)-5,16-dioxo-1,2,3,6,7,8,9,10,11,13a,14,15,16,16a-tetradecahydrocyclopropa[e]pyrrolo[1,2-a][1,4]diazacyclopentadecine-14a(5H)-carboxamide]: the EC50 in assay [1] turned out to be 3.1 nM; in assay [2] it was 0.23 nM.

Take `COc1ccc2c(O[C@@H]3C[C@H]4C(=O)N[C@]5(C(=O)NS(=O)(=O)C6CC6)C[C@H]5/C=C\CCCCC[C@H](NC(=O)N5CC(F)C5)C(=O)N4C3)cc(OC(C)C)nc2c1C` [Compound 2007, (2R,6S,12Z,13aS,14aR,16aS)-N-(cyclopropylsulfonyl)-6-{[(3-fluoroazetidin-1-yl)carbonyl]amino}-2-{[7-methoxy-8-methyl-2-(propan-2-yloxy)quinolin-4-yl]oxy}-5,16-dioxo-1,2,3,6,7,8,9,10,11,13a,14,15,16,16a-tetradecahydrocyclopropa[e]pyrrolo[1,2-a][1,4]diazacyclopentadecine-14a(5H)-carboxamide]: the results for the EC50 in assay [1] and in assay [2] were 9 nM and 0.71 nM, respectively.

On to `COc1ccc2c(O[C@@H]3C[C@H]4C(=O)N[C@]5(C(=O)NS(=O)(=O)C6(C)CC6)C[C@H]5/C=C\CCCCC[C@H](NC(=O)N5CC(C)(O)C5)C(=O)N4C3)cc(OC(C)C)nc2c1C` [Compound 2013, (2R,6S,12Z,13aS,14aR,16aS)-6-{[(3-hydroxy-3-methylazetidin-1-yl)carbonyl]amino}-2-{[7-methoxy-8-methyl-2-(propan-2-yloxy)quinolin-4-yl]oxy}-N-[(1-methylcyclopropyl)sulfonyl]-5,16-dioxo-1,2,3,6,7,8,9,10,11,13a,14,15,16,16a-tetradecahydrocyclopropa[e]pyrrolo[1,2-a][1,4]diazacyclopentadecine-14a(5H)-carboxamide], for which the half-maximal effective concentration (EC50) in assay [1] turned out to be 6.5 nM; in assay [2], 3.3 nM.

As for `COc1ccc2c(O[C@@H]3C[C@H]4C(=O)N[C@]5(C(=O)NS(=O)(=O)C6(C)CC6)C[C@H]5/C=C\CCCCC[C@H](NC(=O)c5ccn(C(C)C)n5)C(=O)N4C3)cc(OC(C)C)nc2c1C` [Compound 1021, (2R,6S,12Z,13aS,14aR,16aS)-2-{[7-methoxy-8-methyl-2-(propan-2-yloxy)quinolin-4-yl]oxy}-N-[(1-methylcyclopropyl)sulfonyl]-5,16-dioxo-6-({[1-(propan-2-yl)-1H-pyrazol-3-yl]carbonyl}amino)-1,2,3,6,7,8,9,10,11,13a,14,15,16,16a-tetradecahydrocyclopropa[e]pyrrolo[1,2-a][1,4]diazacyclopentadecine-14a(5H)-carboxamide], the concentration for a half-maximal effect (EC50) in assay [1] came out at 4.3 nM; in assay [2], 0.24 nM.

For the compound `CCOc1cc(O[C@@H]2C[C@H]3C(=O)N[C@]4(C(=O)NS(=O)(=O)C5(C)CC5)C[C@H]4/C=C\CCCCC[C@H](NC(=O)N(C)C)C(=O)N3C2)c2ccc(OC)c(Br)c2n1` [Compound 2019, (2R,6S,12Z,13aS,14aR,16aS)-2-[(8-bromo-2-ethoxy-7-methoxyquinolin-4-yl)oxy]-6-[(dimethylcarbamoyl)amino]-N-[(1-methylcyclopropyl)sulfonyl]-5,16-dioxo-1,2,3,6,7,8,9,10,11,13a,14,15,16,16a-tetradecahydrocyclopropa[e]pyrrolo[1,2-a][1,4]diazacyclopentadecine-14a(5H)-carboxamide], the half-maximal effective concentration (EC50) was 5.2 nM in assay [1] and 1.4 nM in assay [2].

Consider `COc1ccc2c(O[C@@H]3C[C@H]4C(=O)N[C@]5(C(=O)NS(=O)(=O)C6CC6)C[C@H]5/C=C\CCCCC[C@H](NC(=O)c5ccno5)C(=O)N4C3)cc(OC(C)C)nc2c1C` [Compound 1032, (2R,6S,12Z,13aS,14aR,16aS)-N-(cyclopropylsulfonyl)-2-{[7-methoxy-8-methyl-2-(propan-2-yloxy)quinolin-4-yl]oxy}-6-[(1,2-oxazol-5-ylcarbonyl)amino]-5,16-dioxo-1,2,3,6,7,8,9,10,11,13a,14,15,16,16a-tetradecahydrocyclopropa[e]pyrrolo[1,2-a][1,4]diazacyclopentadecine-14a(5H)-carboxamide], for which the 50% effective concentration (EC50) was determined as 7.8 nM in assay [1] and 0.58 nM in assay [2].

Values taken from US20110294778A1, “HEPATITIS C INHIBITOR COMPOUNDS” (priority 2009, published 2011).
